From patent US20110230476A1, “PI3 KINASE INHIBITORS AND USES THEREOF” (AVILA THERAPEUTICS, INC., priority 2009, published 2011)

Assays:
Phospho-Akt(Ser473) = experiment: Dose response in SKOV3 cells as determined by in-cell Western; assay type: cell-based; settings: Homo sapiens, SK-OV-3; SKOV3 cells, 1 hr; read-out: pAKT Inhibition in cell Western
Method: Dose Response in SKOV3 Cells as Determined by in-Cell Western
Twenty four hours later the media was removed and replaced with 100 ul media containing test compound or control compound and cells were returned to the incubator for 1 hr. At the end of the hour, the media was removed and the cells were washed once with PBS, then fixed for 20 minutes at room temperature in 4% formaldehyde in PBS. The formaldehyde was removed and cells were washed 5 times for 5 minutes with 100 ul of Permeabilization Buffer (PBS+0.1% Triton X-100) at room temperature with gentle shaking. The last wash was removed and replaced with 150 ul of Odyssey Blocking Buffer (Li-Cor, Lincoln, Nebr.) and incubated for 90 minutes at room temperature with gentle shaking.
The Blocking Buffer was then replaced with 50 ul of primary antibody mix (rabbit anti-Phospho-Akt(Ser473) at 1:100 (Cell Signaling Technology, Boston, Mass.) and mouse anti-tubulin at 1:5000 (Sigma Aldrich, St. Louis, Mo.) diluted in Odyssey Blocking Buffer) and incubated overnight at room temperature with gentle shaking.
The next morning, the antibody mix was removed and the wells were washed 5 times for 5 minutes with PBS+0.1% Tween-20. The last wash was replaced with 50 ul of secondary antibody mix (goat anti-rabbit-IRDye-680 and goat anti-mouse-IRDye-800 (Li-Cor), both diluted 1:1000 in Odyssey Blocking Buffer+0.2% Tween-20) and incubated for 1 hour at room temperature with gentle shaking. The antibody mix was removed and the wells were washed 5 times for 5 minutes in PBS+0.1% Tween-20, then 1 time with ddH2O.
The plates were scanned on an Odyssey machine (Li-Cor) with a 3 mm focus offset at an intensity of 8 in both channels and the data was analyzed using the Odyssey software.

PI3Kα (p110α/p85α) = target: T1, PI3Kα (p110α/p85α) (Homo sapiens, UniProt P42336); experiment: HTRF assay, potency against active PI3Kα; assay type: biochemical; settings: HTRF; [ATP]=50 μM, [di-C8-PIP2]=10 μM; 30 min pre-incubation; read-out: PI3Kα Inhibition
T1 construct: purchased BPS Bioscience (San Diego, Calif.) or Millipore (Billerica, Mass.)
T1 sequence (P42336 whole entry): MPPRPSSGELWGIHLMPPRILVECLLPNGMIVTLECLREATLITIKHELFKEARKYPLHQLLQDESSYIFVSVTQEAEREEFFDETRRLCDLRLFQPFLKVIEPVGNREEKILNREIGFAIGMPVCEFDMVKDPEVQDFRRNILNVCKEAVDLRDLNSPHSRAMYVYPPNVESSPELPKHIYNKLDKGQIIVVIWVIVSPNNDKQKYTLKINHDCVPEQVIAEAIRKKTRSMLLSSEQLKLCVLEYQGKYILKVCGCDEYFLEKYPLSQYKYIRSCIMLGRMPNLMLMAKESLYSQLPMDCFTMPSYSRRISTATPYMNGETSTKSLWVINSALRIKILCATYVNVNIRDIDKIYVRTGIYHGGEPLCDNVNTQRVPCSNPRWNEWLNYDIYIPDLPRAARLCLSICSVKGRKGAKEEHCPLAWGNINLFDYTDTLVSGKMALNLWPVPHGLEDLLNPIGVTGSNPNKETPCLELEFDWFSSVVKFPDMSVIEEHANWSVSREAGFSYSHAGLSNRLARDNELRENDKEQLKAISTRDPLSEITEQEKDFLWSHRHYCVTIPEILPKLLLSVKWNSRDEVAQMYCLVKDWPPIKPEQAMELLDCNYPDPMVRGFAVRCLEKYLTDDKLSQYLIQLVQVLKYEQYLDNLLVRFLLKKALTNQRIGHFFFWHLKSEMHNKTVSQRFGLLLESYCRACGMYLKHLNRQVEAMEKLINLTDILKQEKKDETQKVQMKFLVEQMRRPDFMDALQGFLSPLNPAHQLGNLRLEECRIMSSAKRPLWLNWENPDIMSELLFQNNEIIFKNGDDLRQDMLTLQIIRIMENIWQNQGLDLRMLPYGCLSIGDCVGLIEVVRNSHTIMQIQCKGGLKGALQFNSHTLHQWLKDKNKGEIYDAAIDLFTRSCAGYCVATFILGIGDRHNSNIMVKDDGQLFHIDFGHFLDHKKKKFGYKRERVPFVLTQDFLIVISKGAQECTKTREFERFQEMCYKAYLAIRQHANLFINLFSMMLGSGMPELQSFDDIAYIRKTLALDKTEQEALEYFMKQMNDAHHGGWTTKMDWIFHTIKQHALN
T1 sequence (P27986 whole entry partner): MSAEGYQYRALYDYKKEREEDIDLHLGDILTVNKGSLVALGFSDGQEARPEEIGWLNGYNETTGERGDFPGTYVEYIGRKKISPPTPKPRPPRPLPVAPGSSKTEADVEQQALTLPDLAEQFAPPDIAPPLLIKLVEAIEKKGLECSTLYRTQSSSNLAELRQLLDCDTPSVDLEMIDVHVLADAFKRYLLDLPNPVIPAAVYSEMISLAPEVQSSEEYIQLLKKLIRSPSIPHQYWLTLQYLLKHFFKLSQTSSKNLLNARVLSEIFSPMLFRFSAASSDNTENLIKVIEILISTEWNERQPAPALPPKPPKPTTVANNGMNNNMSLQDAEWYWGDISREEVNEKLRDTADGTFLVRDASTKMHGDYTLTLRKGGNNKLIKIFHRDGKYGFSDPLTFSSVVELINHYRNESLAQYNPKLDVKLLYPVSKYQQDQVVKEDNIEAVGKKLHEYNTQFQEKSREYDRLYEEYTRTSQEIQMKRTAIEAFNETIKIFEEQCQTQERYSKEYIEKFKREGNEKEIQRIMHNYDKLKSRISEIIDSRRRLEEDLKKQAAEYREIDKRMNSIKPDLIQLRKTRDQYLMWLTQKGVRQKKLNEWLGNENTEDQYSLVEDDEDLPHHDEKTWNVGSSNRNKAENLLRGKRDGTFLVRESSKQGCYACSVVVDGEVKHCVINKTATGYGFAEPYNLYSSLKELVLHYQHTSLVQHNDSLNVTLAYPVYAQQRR
How it was run: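 Active p110/p85α lipid kinase reactions were started with ATP and run 30-60 minutes at 25 °C, then stopped and developed with HTRF detection mix. HTRF ratio converted to % inhibition against ±enzyme controls; IC50 from log[inhibitor] vs response, variable slope.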

EC50 (Phospho-Akt(Ser473))	IC50 (PI3Kα (p110α/p85α))	SMILES
100 to 1000 nM	10 to 100 nM	C/C=C/C(=O)CCC(=O)NCc1ccc(-c2cc3nc(-c4cccc5[nH]ncc45)nc(N4CCOCC4)c3s2)cc1 [II-a-115, (E)-N-(4-(2-(1H-indazol-4-yl)-4-morpholinothieno[3,2-d]pyrimidin-6-yl)benzyl)-4-oxohept-5-enamide]
10 to 100 nM	100 to 1000 nM	C=CC(=O)Nc1ccc(C(=O)N2CCN(Cc3cc4nc(-c5cccc6[nH]ncc56)nc(N5CCOCC5)c4s3)CC2)cc1 [II-a-117, N-(4-(4-((2-(1H-indazol-4-yl)-4-morpholinothieno[3,2-d]pyrimidin-6-yl)methyl)piperazine-1-carbonyl)phenyl)acrylamide]
100 to 1000 nM	100 to 1000 nM	C=CC(=O)Nc1ccc(S(=O)(=O)N2CCN(Cc3cc4nc(-c5cccc6[nH]ncc56)nc(N5CCOCC5)c4s3)CC2)cc1 [II-a-118, N-(4-(4-((2-(1H-indazol-4-yl)-4-morpholinothieno[3,2-d]pyrimidin-6-yl)methyl)piperazin-1-ylsulfonyl)phenyl)acrylamide]
100 to 1000 nM	10 to 100 nM	CC(C)=CC(=O)CCC(=O)NCc1ccc(-c2cc3nc(-c4cccc(O)c4)nc(N4CCOCC4)c3s2)cc1 [II-a-122, N-(4-(2-(3-hydroxyphenyl)-4-morpholinothieno[3,2-d]pyrimidin-6-yl)benzyl)-6-methyl-4-oxohept-5-enamide]
10 to 100 nM	< 10 nM	C/C=C/C(=O)CCC(=O)N1CCC(O)(CCc2cc3nc(-c4cccc(O)c4)nc(N4CCOCC4)c3s2)CC1 [II-a-123, (E)-1-(4-hydroxy-4-(2-(2-(3-hydroxyphenyl)-4-morpholinothieno[3,2-d]pyrimidin-6-yl)ethyl)piperidin-1-yl)hept-5-ene-1,4-dione]
≤ 10 nM	100 to 1000 nM	O=C(/C=C/c1cccs1)CCC(=O)N1CCN(Cc2cc3nc(-c4cccc5[nH]ncc45)nc(N4CCOCC4)c3s2)CC1 [II-a-126, (E)-1-(4-((2-(1H-indazol-4-yl)-4-morpholinothieno[3,2-d]pyrimidin-6-yl)methyl)piperazin-1-yl)-6-(thiophen-2-yl)hex-5-ene-1,4-dione]
≤ 10 nM	100 to 1000 nM	C=CC(=O)Nc1ccc(N2CCN(C(=O)c3cc4nc(-c5cccc(O)c5)nc(N5CCOCC5)c4s3)CC2)cc1 [II-a-127, N-(4-(4-(2-(3-hydroxyphenyl)-4-morpholinothieno[3,2-d]pyrimidine-6-carbonyl)piperazin-1-yl)phenyl)acrylamide]
10 to 100 nM	100 to 1000 nM	Cn1cncc1/C=C/C(=O)CCC(=O)N1CCN(Cc2cc3nc(-c4cccc5[nH]ncc45)nc(N4CCOCC4)c3s2)CC1 [II-a-130, (E)-1-(4-((2-(1H-indazol-4-yl)-4-morpholinothieno[3,2-d]pyrimidin-6-yl)methyl)piperazin-1-yl)-6-(1-methyl-1H-imidazol-5-yl)hex-5-ene-1,4-dione]
10 to 100 nM	100 to 1000 nM	O=C(/C=C/c1cccnc1)CCC(=O)N1CCN(Cc2cc3nc(-c4cccc5[nH]ncc45)nc(N4CCOCC4)c3s2)CC1 [II-a-132, (E)-1-(4-((2-(1H-indazol-4-yl)-4-morpholinothieno[3,2-d]pyrimidin-6-yl)methyl)piperazin-1-yl)-6-(pyridin-3-yl)hex-5-ene-1,4-dione]
10 to 100 nM	100 to 1000 nM	O=C(/C=C/c1ccccn1)CCC(=O)N1CCN(Cc2cc3nc(-c4cccc5[nH]ncc45)nc(N4CCOCC4)c3s2)CC1 [II-a-133, (E)-1-(4-((2-(1H-indazol-4-yl)-4-morpholinothieno[3,2-d]pyrimidin-6-yl)methyl)piperazin-1-yl)-6-(pyridin-2-yl)hex-5-ene-1,4-dione]
10 to 100 nM	10 to 100 nM	O=C(/C=C/c1ccccc1)CCCC(=O)N1CC=C(c2cc3nc(-c4cccc5[nH]ncc45)nc(N4CCOCC4)c3s2)CC1 [II-a-137, (E)-1-(4-(2-(1H-indazol-4-yl)-4-morpholinothieno[3,2-d]pyrimidin-6-yl)-5,6-dihydropyridin-1(2H)-yl)-7-phenylhept-6-ene-1,5-dione]
100 to 1000 nM	10 to 100 nM	Cc1ccccc1/C=C/C(=O)CCC(=O)N1CCN(Cc2cc3nc(-c4cccc5[nH]ncc45)nc(N4CCOCC4)c3s2)CC1 [II-a-138, (E)-1-(4-((2-(1H-indazol-4-yl)-4-morpholinothieno[3,2-d]pyrimidin-6-yl)methyl)piperazin-1-yl)-6-o-tolylhex-5-ene-1,4-dione]
100 to 1000 nM	10 to 100 nM	Cc1ccc(/C=C/C(=O)CCC(=O)N2CCN(Cc3cc4nc(-c5cccc6[nH]ncc56)nc(N5CCOCC5)c4s3)CC2)cc1 [II-a-139, (E)-1-(4-((2-(1H-indazol-4-yl)-4-morpholinothieno[3,2-d]pyrimidin-6-yl)methyl)piperazin-1-yl)-6-p-tolylhex-5-ene-1,4-dione]
100 to 1000 nM	10 to 100 nM	O=C(/C=C/c1ccccc1F)CCC(=O)N1CCN(Cc2cc3nc(-c4cccc5[nH]ncc45)nc(N4CCOCC4)c3s2)CC1 [II-a-140, (E)-1-(4-((2-(1H-indazol-4-yl)-4-morpholinothieno[3,2-d]pyrimidin-6-yl)methyl)piperazin-1-yl)-6-(2-fluorophenyl)hex-5-ene-1,4-dione]
100 to 1000 nM	10 to 100 nM	O=C(/C=C/c1ccncc1)CCC(=O)N1CCN(Cc2cc3nc(-c4cccc5[nH]ncc45)nc(N4CCOCC4)c3s2)CC1 [II-a-141, (E)-1-(4-((2-(1H-indazol-4-yl)-4-morpholinothieno[3,2-d]pyrimidin-6-yl)methyl)piperazin-1-yl)-6-(pyridin-4-yl)hex-5-ene-1,4-dione]
≤ 10 nM	100 to 1000 nM	COC/C=C(\C)C(=O)CCC(=O)N1CCN(Cc2cc3nc(-c4cccc5[nH]ncc45)nc(N4CCOCC4)c3s2)CC1 [II-a-161, (E)-1-(4-((2-(1H-indazol-4-yl)-4-morpholinothieno[3,2-d]pyrimidin-6-yl)methyl)piperazin-1-yl)-7-methoxy-5-methylhept-5-ene-1,4-dione]
≤ 10 nM	10 to 100 nM	CC(C)=CC(=O)CCCC(=O)N(C)Cc1cc2nc(-c3cnc(N)nc3)nc(N3CCOCC3)c2s1 [II-a-174, N-((2-(2-aminopyrimidin-5-yl)-4-morpholinothieno[3,2-d]pyrimidin-6-yl)methyl)-N,7-dimethyl-5-oxooct-6-enamide]
≤ 10 nM	10 to 100 nM	C=CC(=O)Nc1ccc(C(=O)N(C)Cc2cc3nc(-c4cnc(N)nc4)nc(N4CCOCC4)c3s2)cc1 [II-a-175, 4-acrylamido-N-((2-(2-aminopyrimidin-5-yl)-4-morpholinothieno[3,2-d]pyrimidin-6-yl)methyl)-N-methylbenzamide]
10 to 100 nM	100 to 1000 nM	C=CC(=O)Nc1ccc(CCNC(=O)c2cc3nc(-c4cnc(N)nc4)cc(N4CCOCC4)c3s2)cc1 [II-g-1, N-(4-acrylamidophenethyl)-5-(2-aminopyrimidin-5-yl)-7-morpholinothieno[3,2-b]pyridine-2-carboxamide]
100 to 1000 nM	> 1000 nM	CCCC(=O)CCC(=O)N1CCN(Cc2cc3nc(-c4cccc5[nH]ncc45)nc(N4CCOCC4)c3s2)CC1 [II^R-a-36, 1-(4-((2-(1H-indazol-4-yl)-4-morpholinothieno[3,2-d]pyrimidin-6-yl)methyl)piperazin-1-yl)heptane-1,4-dione]
10 to 100 nM	–	COc1c(OCCOCCNS(C)(=O)=O)ccc2c1N=C(NC(=O)c1cccnc1)N1CCN=C21 [IX-ref]
10 to 100 nM	< 10 nM	C=C(CC)C(=O)CCC(=O)N1CCN(c2ccc(-c3ccnc4ccc(/C=C5\SC(=O)NC5=O)cc34)cn2)CC1 [V-20, (Z)-5-((4-(6-(4-(5-methylene-4-oxoheptanoyl)piperazin-1-yl)pyridin-3-yl)quinolin-6-yl)methylene)thiazolidine-2,4-dione]
100 to 1000 nM	100 to 1000 nM	C/C=C/C(=O)CCC(=O)N1CCC(n2ncc3c(N4CCOCC4)nc(-c4ccc(NC(=O)NC)cc4)nc32)CC1 [VII-7, (E)-1-methyl-3-(4-(4-morpholino-1-(1-(4-oxohept-5-enoyl)piperidin-4-yl)-1H-pyrazolo[3,4-d]pyrimidin-6-yl)phenyl)urea]
10 to 100 nM	–	CNC(=O)Nc1ccc(-c2nc(N3CCOCC3)c3cnn(C4CCN(C(=O)OC)CC4)c3n2)cc1 [VII-ref]
≤ 10 nM	–	COc1ncc(-c2ccc3nccc(-c4ccncc4)c3c2)cc1NS(=O)(=O)c1ccc(F)cc1F [X-ref]

SMILES	EC50 (Phospho-Akt(Ser473))	IC50 (PI3Kα (p110α/p85α))
Nc1ncnc2c1c(-c1cnc3[nH]ccc3c1)nn2C1CCCC1 [XI-ref]	10 to 100 nM	–
